Test results from patent US20240174690A1, “ANNULATED 2-AMINO-3-CYANO THIOPHENES AND DERIVATIVES FOR THE TREATMENT OF CANCER” (BOEHRINGER INGELHEIM INTERNATIONAL GMBH, priority 2021, published 2024).
Read-outs that look alike come from different tables or passages of the source.

How the values were obtained:
Type in all cases: cell-based
[1] = test system: GP2D cells; experiment: GP2D proliferation assay (120 h) (colorectal cancer, G12D)
Method in brief: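 500 cells/well in DMEM + GlutaMAX + 10% FCS, exposed to a logarithmic compound dose series (DMSO-normalized) for 120 h. Viability read by CellTiter-Glo luminescence as percent of DMSO control, with an untreated T0 read at dosing; IC50 from four-parameter non-linear regression.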

[2] = test system: MKN1 cells; experiment: MKN1 CTG proliferation assay (120 h) (gastric cancer, wt amplified)
Method in brief: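 MKN1 gastric cancer cells (200–500 per well, RPMI + 10% FCS) given a logarithmic compound dose series and incubated 120 h. Viability by CellTiter-Glo luminescence as percent of DMSO controls. IC50 by four-parameter non-linear regression.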

[3] = test system: NCI-H2122 cells; experiment: NCI-H2122 CTG proliferation assay (120 h) (NSCLC, G12C); conditions: Homo sapiens
Method in brief: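 Proliferation was read by CellTiter-Glo luminescence after 120 h of compound exposure, starting one day after seeding 200 NCI-H2122 (G12C) cells per well in RPMI/10% FCS. RLU relative to DMSO wells gave percent viability, and four-parameter nonlinear regression gave IC50.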

[4] = Homo sapiens, MKN-1, assay 1, CTG 120 h, read-out: MKN1 (assay 1) IC50
[5] = Homo sapiens, MKN-1, assay 3, CTG 120 h, read-out: MKN1 (assay 3) IC50

Structure (SMILES)	IC50 [3] [nM]	IC50 [2, 5] [nM]	also measured
C[C@H](Oc1nc(-c2noc3c2CCC[C@@]32CCCc3sc(N)c(C#N)c32)nc(N2CCN(C)C3(CC3)C2)c1Cl)[C@@H]1C[C@@H](F)CN1C [II-176]	–	–	IC50 [1]: 50 nM
C[C@H](Oc1cc(-n2ccc(C(=O)N[C@H]3CCOC3)n2)nc(-c2noc3c2CCC[C@@]32CCCc3sc(N)c(C#N)c32)n1)[C@@H]1CCCN1C [II-193]	–	–	IC50 ([2]; assay 3, CTG 120 h, read-out: MKN1 (assay 3) IC50): 17 nM
C[C@H](Oc1cc([C@H]2CCNC2)nc(-c2noc3c2CCC[C@@]32CCCc3sc(N)c(C#N)c32)n1)[C@@H]1CCCN1C [II-163]	4500	–	–
C[C@H](Oc1cc(-n2ccc(C3(O)COC3)n2)nc(-c2noc3c2CCC[C@@]32CCCc3sc(N)c(C#N)c32)n1)[C@@H]1CCCN1C [II-189]	–	18	IC50 [2, 4]: 19 nM
CO[C@H]1CCN(C)[C@@H]1[C@H](C)Oc1cc(-n2ccc(C(=O)N(C)C3COC3)n2)nc(-c2noc3c2CCC[C@@]32CCCc3sc(N)c(C#N)c32)n1 [II-199]	–	51	–
C[C@H](Oc1cc(-n2nccc2-c2ccncc2)nc(-c2noc3c2CCC[C@@]32CCCc3sc(N)c(C#N)c32)n1)[C@@H]1CCCN1C [II-131]	672	–	–
CO[C@H]1CCN(C)[C@@H]1[C@H](C)Oc1cc(-n2ccc(C(=O)N[C@@H]3CCOC3)n2)nc(-c2noc3c2CCC[C@@]32CCCc3sc(N)c(C#N)c32)n1 [II-197]	–	16	–
C[C@@H]1CN(c2nc(-c3noc4c3CCC[C@@]43CCCc4sc(N)c(C#N)c43)nc(O[C@@H](C)[C@@H]3C[C@@H](F)CN3C)c2F)CC2(CC2)N1 [II-158]	–	–	IC50 [1]: 9 nM
C[C@H](Oc1cc(-n2ccc(-c3cn(C4CCOCC4)nn3)n2)nc(-c2noc3c2CCC[C@@]32CCCc3sc(N)c(C#N)c32)n1)[C@@H]1CCCN1C [II-210]	–	37	–
C[C@H](Oc1cc(-n2cncn2)nc(-c2onc3c2CCC[C@@]32CCCc3sc(N)c(C#N)c32)n1)[C@@H]1CCCN1C [I-18]	1760	–	–
C[C@H](Oc1cc(-n2ccc(-c3cn(CC4(C)COC4)nn3)n2)nc(-c2noc3c2CCC[C@@]32CCCc3sc(N)c(C#N)c32)n1)[C@@H]1CCCN1C [II-213]	–	12	–
COCCNC(=O)c1ccn(-c2cc(O[C@@H](C)[C@@H]3[C@@H](OC)CCN3C)nc(-c3noc4c3CCC[C@@]43CCCc4sc(N)c(C#N)c43)n2)n1 [II-200]	–	11	–
C[C@H](Oc1cc(N2CC3COCC(C2)N3)nc(-c2noc3c2CCC[C@@]32CCCc3sc(N)c(C#N)c32)n1)[C@@H]1CCCN1C [II-160]	3190	–	–
C[C@H]1CNCCCN1c1cc(-c2ccn(C)n2)nc(-c2noc3c2CCC[C@@]32CCCc3sc(N)c(C#N)c32)n1 [II-140]	8240	–	–
COCCNC(=O)c1ccn(-c2cc(O[C@@H](C)[C@@H]3CCCN3C)nc(-c3noc4c3CCC[C@@]43CCCc4sc(N)c(C#N)c43)n2)n1 [II-195]	–	22	–
C[C@H](Oc1cc(-n2cnc(C(=O)N(C)C)c2)nc(-c2noc3c2CCC[C@@]32CCCc3sc(N)c(C#N)c32)n1)[C@@H]1CCCN1C [II-126]	2690	–	–
C[C@H](O)Cn1ncc(-c2cc(O[C@@H](C)[C@@H]3CCCN3C)nc(-c3noc4c3CCC[C@@]43CCCc4sc(N)c(C#N)c43)n2)n1 [II-134]	4120	–	–
CO[C@H]1CCN(C)[C@@H]1[C@H](C)Oc1cc(-n2ccc(C(=O)N[C@H]3CCOC3)n2)nc(-c2noc3c2CCC[C@@]32CCCc3sc(N)c(C#N)c32)n1 [II-198]	–	15	–
C[C@H](Oc1cc(-n2cc3ccn([C@H]4CCOC4)c(=O)c3n2)nc(-c2noc3c2CCC[C@@]32CCCc3sc(N)c(C#N)c32)n1)[C@@H]1CCCN1C [II-202]	–	27	–
C[C@H](Oc1cc(-n2cc3ccn([C@@H](C)c4ccccn4)c(=O)c3n2)nc(-c2noc3c2CCC[C@@]32CCCc3sc(N)c(C#N)c32)n1)[C@@H]1CCCN1C [II-205]	–	33	–
CO[C@H]1CCN(C)[C@@H]1[C@H](C)Oc1cc(-n2ccc(C(N)=O)n2)nc(-c2noc3c2CCC[C@@]32CCCc3sc(N)c(C#N)c32)n1 [II-201]	–	14	IC50 [2, 4]: 20 nM
C[C@H](Oc1cc(N2CCNC[C@@]23CCOC3)nc(-c2onc3c2CCC[C@@]32CCCc3sc(N)c(C#N)c32)n1)[C@@H]1CCCN1C [I-13]	6470	679	–
CO[C@@H]1C[C@@H]([C@H](C)Oc2cc(N3CCN(C)C4(COC4)C3)nc(-c3noc4c3CCC[C@@]43CCCc4sc(N)c(C#N)c43)n2)N(C)C1 [II-153]	–	–	IC50 [1]: 14 nM

Structure (SMILES)	IC50 [3] [nM]	IC50 [2, 5] [nM]	also measured
C[C@H](Oc1cc(N2C[C@@H]3[C@@H](N)[C@@H]3C2)nc(-c2noc3c2CCC[C@@]32CCCc3sc(N)c(C#N)c32)n1)[C@@H]1CCCN1C [II-167]	9790	–	–
C[C@H](Oc1cc(-n2cc(C(=O)N(C)C)nn2)nc(-c2noc3c2CCC[C@@]32CCCc3sc(N)c(C#N)c32)n1)[C@@H]1CCCN1C [II-132]	188	–	–
C[C@H](Oc1cc(-n2ccc(C(=O)N(C)C3COC3)n2)nc(-c2noc3c2CCC[C@@]32CCCc3sc(N)c(C#N)c32)n1)[C@@H]1CCCN1C [II-194]	–	25	IC50 [2, 4]: 20 nM
CO[C@H]1CCN(C)[C@@H]1[C@H](C)Oc1cc(-n2ccc(C(=O)N[C@@H](C)c3ccccn3)n2)nc(-c2noc3c2CCC[C@@]32CCCc3sc(N)c(C#N)c32)n1 [II-196]	–	17	–
C[C@H](Oc1cc(-n2ccc(-c3cn([C@@H]4CCOC4)nn3)n2)nc(-c2noc3c2CCC[C@@]32CCCc3sc(N)c(C#N)c32)n1)[C@@H]1CCCN1C [II-211]	–	22	–
CO[C@H]1CCN(C)[C@@H]1[C@H](C)Oc1cc(N2CCNC3(CC3)C2)nc(-c2noc3c2CCC[C@@]32CCCc3sc(N)c(C#N)c32)n1 [II-184]	–	68	IC50 ([2]; Homo sapiens, MKN-1, assay 2, CTG 120 h, read-out: MKN1 (assay 2) IC50): 227 nM
C[C@H](Oc1cc(-n2ccc(-c3cn([C@H]4CCOC4)nn3)n2)nc(-c2noc3c2CCC[C@@]32CCCc3sc(N)c(C#N)c32)n1)[C@@H]1CCCN1C [II-212]	–	17	–
C[C@H](Oc1cc(-n2cc3ccn(C4CCOCC4)c(=O)c3n2)nc(-c2noc3c2CCC[C@@]32CCCc3sc(N)c(C#N)c32)n1)[C@@H]1CCCN1C [II-206]	–	34	–
C[C@H](Oc1cc(-n2cc(-c3cncs3)nn2)nc(-c2noc3c2CCC[C@@]32CCCc3sc(N)c(C#N)c32)n1)[C@@H]1CCCN1C [II-125]	768	–	–
C[C@H](Oc1cc(-c2ccn(C[C@H]3CCOC3)n2)nc(-c2noc3c2CCC[C@@]32CCCc3sc(N)c(C#N)c32)n1)[C@@H]1CCCN1C [II-129]	198	–	–
CC(C)[C@@H]1CN(c2cc(O[C@@H](C)[C@@H]3CCCN3C)nc(-c3noc4c3CCC[C@@]43CCCc4sc(N)c(C#N)c43)n2)CCN1 [II-166]	1250	–	–
CO[C@H]1CCN(C)[C@@H]1[C@H](C)Oc1cc(-n2ccc(CC(=O)NC(C)C)n2)nc(-c2noc3c2CCC[C@@]32CCCc3sc(N)c(C#N)c32)n1 [II-183]	–	41	–
CO[C@@H]1C[C@@H]([C@H](C)Oc2cc(-c3cnn(C)n3)nc(-c3onc4c3CCC[C@@]43CCCc4sc(N)c(C#N)c43)n2)N(C)C1 [I-17]	4230	–	–
C[C@H](Oc1cc(-c2ccn([C@H]3CCOC3)n2)nc(-c2noc3c2CCC[C@@]32CCCc3sc(N)c(C#N)c32)n1)[C@@H]1CCCN1C [II-127]	189	–	–
CC(C)N1CCCN(c2cc(-c3ccn(C)n3)nc(-c3noc4c3CCC[C@@]43CCCc4sc(N)c(C#N)c43)n2)[C@@H](C)C1 [II-170]	942	–	–
CC(C)NC(=O)Cc1ccn(-c2cc(O[C@@H](C)[C@@H]3CCCN3C)nc(-c3noc4c3CCC[C@@]43CCCc4sc(N)c(C#N)c43)n2)n1 [II-182]	–	12	IC50 [2, 4]: 24 nM
C[C@@H]1CN(c2cc(O[C@@H](C)[C@@H]3CCCN3C)nc(-c3noc4c3CCC[C@@]43CCCc4sc(N)c(C#N)c43)n2)CCN1 [II-161]	4850	–	–
C[C@H]1CNCCCN1c1cc(-n2ccnc2)nc(-c2noc3c2CCC[C@@]32CCCc3sc(N)c(C#N)c32)n1 [II-142]	10500	–	–
C[C@H](Oc1cc(-n2cncc3ccnc2-3)nc(-c2onc3c2CCC[C@@]32CCCc3sc(N)c(C#N)c32)n1)[C@@H]1CCCN1C [I-14]	2870	–	–
[2H]C([2H])([2H])N1C[C@H](F)C[C@H]1[C@H](C)Oc1cc(N2CCN(C([2H])([2H])[2H])C3(CC3)C2)nc(-c2noc3c2CCC[C@@]32CCCc3sc(N)c(C#N)c32)n1 [II-207]	–	785	–
C[C@H](Oc1cc(-c2ccn(Cc3ncco3)n2)nc(-c2noc3c2CCC[C@@]32CCCc3sc(N)c(C#N)c32)n1)[C@@H]1CCCN1C [II-128]	361	–	–
CC(=O)N1CCN(c2cc(O[C@@H](C)[C@@H]3CCCN3C)nc(-c3noc4c3CCC[C@@]43CCCc4sc(N)c(C#N)c43)n2)CC12CC2 [II-178]	948	–	–
C[C@H](Oc1cc(N2Cc3cnn(C)c3C2)nc(-c2onc3c2CCC[C@@]32CCCc3sc(N)c(C#N)c32)n1)[C@@H]1CCCN1C [I-19]	2710	–	–
